Assay results from patent US6737383B1, “Herbicidal oxadiazolidines” (priority 1999, dated 2004).

Key:
bedstraw = test: Test B pre/postemergence bedstraw; format: in vivo, Galium aparine; details: Postemergence; for Plant response rating, Bedstraw: scale 0 to 10, 0 is no effect, 10 is complete control; for Bedstraw plant response rating: scale of 0 to 10 where 0 is no effect and 10 is complete control
Summary of the method: (§1)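 Test chemicals in a non-phytotoxic solvent mixture with surfactant were sprayed preemergence onto planted seeds and postemergence onto plants 2 to 18 cm tall (1- to 4-leaf stage). After twelve to sixteen days in a greenhouse, injury was visually rated against untreated controls from 0 (no effect) to 10 (complete control).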

crabgrass = test: Test B pre/postemergence crabgrass; format: in vivo, Digitaria sanguinalis
Summary of the method: as §1

duck salad = test: Test B flood test duck salad; format: in vivo, Heteranthera limosa; details: for Plant response rating, Ducksalad: scale 0 to 10, 0 is no effect, 10 is complete control; for Ducksalad plant response rating: scale of 0 to 10 where 0 is no effect and 10 is complete control
Summary of the method: (§2)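 Plants were grown to the 2-leaf stage before treatment with test chemical, then held in a greenhouse for twelve to sixteen days. Injury was visually rated against untreated controls on a 0–10 scale, where 0 is no effect and 10 is complete control.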

giant foxtail = test: Test B pre/postemergence giant foxtail; format: in vivo, Setaria faberii
Summary of the method: as §1

sugar beet = test: Test B pre/postemergence sugar beet; format: in vivo, Beta vulgaris
Summary of the method: as §1

wheat = test: Test B pre/postemergence wheat; format: in vivo, Triticum aestivum
Summary of the method: as §1

rape = test: Test B pre/postemergence rape; format: in vivo, Brassica napus
Summary of the method: as §1

smallflower flatsedge = test: Test B flood test smallflower flatsedge; format: in vivo, Cyperus difformis
Summary of the method: as §2

corn = test: Test B pre/postemergence corn; format: in vivo, Zea mays
Summary of the method: as §1

pigweed = test: Test B pre/postemergence pigweed; format: in vivo, Amaranthus retroflexus
Summary of the method: as §1

velvetleaf = test: Test B pre/postemergence velvetleaf; format: in vivo, Abutilon theophrasti
Summary of the method: as §1

purple nutsedge = test: Test B pre/postemergence purple nutsedge; format: in vivo, Cyperus rotundus
Summary of the method: as §1

bamyardgrass = test: Test B flood test barnyardgrass; format: in vivo, Echinochloa crus-galli; details: for Plant response rating, Barnyardgrass: scale 0 to 10, 0 is no effect, 10 is complete control; for Barnyardgrass plant response rating: scale of 0 to 10 where 0 is no effect and 10 is complete control
Summary of the method: as §2

cocklebur = test: Test B pre/postemergence cocklebur; format: in vivo, Xanthium strumarium
Summary of the method: as §1

wild oat = test: Test B pre/postemergence wild oat; format: in vivo, Avena fatua
Summary of the method: as §1

surinam grass = test: Test B pre/postemergence surinam grass; format: in vivo, Brachiaria decumbens
Summary of the method: as §1

blackgrass = test: Test B pre/postemergence blackgrass; format: in vivo, Alopecurus myosuroides
Summary of the method: as §1

morningglory = test: Test B pre/postemergence morningglory; format: in vivo, Ipomoea hederacea
Summary of the method: as §1

soybean = test: Test B pre/postemergence soybean; format: in vivo, Glycine max
Summary of the method: as §1

rice = test: Test B flood test rice; format: in vivo, Oryza sativa
Summary of the method: as §2

[1] = Postemergence, Rate 125 g/ha, scale 0 to 10, 0 is no effect, 10 is complete control
[2] = Postemergence, Rate 250 g/ha, scale 0 to 10, 0 is no effect, 10 is complete control
[3] = Postemergence, Rate 500 g/ha, scale of 0 to 10 where 0 is no effect and 10 is complete control
[4] = Preemergence, Rate 62 g/ha, scale 0 to 10 (0 no effect, 10 complete control)
[5] = Preemergence, Rate 125 g/ha, scale of 0 to 10 where 0 is no effect and 10 is complete control
[6] = Preemergence, Rate 250 g/ha, scale 0 to 10, 0 is no effect, 10 is complete control
[7] = Preemergence, Rate 500 g/ha, scale 0 to 10, 0 is no effect, 10 is complete control
[8] = Rate 62 g/ha, Postemergence, scale of 0 to 10 where 0 is no effect and 10 is complete control
[9] = Postemergence (flood test), Rate 125 g/ha
[10] = Postemergence section (flood test species), Rate 500 g/ha
[11] = Rate 62 g/ha, Postemergence (flood test species)
[12] = flood test species, listed under Postemergence, Rate 250 g/ha
[13] = Postemergence section (flood test species), Rate 500 g/ha, scale of 0 to 10 where 0 is no effect and 10 is complete control
[14] = flood test species, listed under Postemergence, Rate 250 g/ha, scale 0 to 10, 0 is no effect, 10 is complete control
[15] = Preemergence, Rate 250 g/ha, scale of 0 to 10 where 0 is no effect and 10 is complete control

CC(C)Cn1c(=O)on(C(=O)N(c2ccc(Cl)cc2)C(C)C)c1=O [Compound 417]
Plant response rating, Bedstraw (bedstraw; Rate 125 g/ha): 0 | Plant response rating, Bedstraw (bedstraw; Rate 250 g/ha): 0 | Bedstraw plant response rating (bedstraw; Rate 500 g/ha): 6 | Bedstraw plant response rating (bedstraw; Rate 62 g/ha): 0 | Plant response rating, Crabgrass (crabgrass; [1]): 0 | Plant response rating, Crabgrass (crabgrass; [2]): 2 | Crabgrass plant response rating (crabgrass; [3]): 2 | Plant response rating, Crabgrass (crabgrass; [4]): 6 | Plant response rating, Crabgrass (crabgrass; [5]): 9 | Crabgrass plant response rating (crabgrass; [6]): 9 | Crabgrass plant response rating (crabgrass; [7]): 10 | Crabgrass plant response rating (crabgrass; [8]): 0 | Plant response rating, Ducksalad (duck salad; [9]): 0 | Ducksalad plant response rating (duck salad; [10]): 3 | Ducksalad plant response rating (duck salad; [11]): 0 | Plant response rating, Ducksalad (duck salad; [12]): 2 | Plant response rating, Giant foxtail (giant foxtail; [1]): 0 | Plant response rating, Giant foxtail (giant foxtail; [2]): 1 | Giant foxtail plant response rating (giant foxtail; [3]): 8 | Plant response rating, Giant foxtail (giant foxtail; [4]): 4 | Plant response rating, Giant foxtail (giant foxtail; [5]): 9 | Giant foxtail plant response rating (giant foxtail; [6]): 10 | Giant foxtail plant response rating (giant foxtail; [7]): 10 | Giant foxtail plant response rating (giant foxtail; [8]): 0 | Plant response rating, Sugarbeets (sugar beet; [2]): 0 | Sugarbeets plant response rating (sugar beet; [3]): 6 | Plant response rating, Sugarbeets (sugar beet; [4]): 0 | Plant response rating, Sugarbeets (sugar beet; [5]): 0 | Sugarbeets plant response rating (sugar beet; [6]): 2 | Sugarbeets plant response rating (sugar beet; [7]): 6 | Wheat plant response rating (wheat; [3]): 0 | Plant response rating, Wheat (wheat; [4]): 0 | Plant response rating, Wheat (wheat; [5]): 0 | Wheat plant response rating (wheat; [6]): 0 | Wheat plant response rating (wheat; [7]): 2 | Plant response rating, Rape (rape; [2]): 0 | Rape plant response rating (rape; [3]): 2 | Plant response rating, Rape (rape; [4]): 0 | Plant response rating, Rape (rape; [5]): 0 | Rape plant response rating (rape; [6]): 5 | Rape plant response rating (rape; [7]): 6 | S. Flatsedge plant response rating (smallflower flatsedge; [13]): 9 | Plant response rating, S. Flatsedge (smallflower flatsedge; [14]): 9 | Plant response rating, Corn (corn; [1]): 0 | Plant response rating, Corn (corn; [2]): 0 | Corn plant response rating (corn; [3]): 0 | Plant response rating, Corn (corn; [4]): 0 | Plant response rating, Corn (corn; [5]): 0 | Corn plant response rating (corn; [6]): 0 | Corn plant response rating (corn; [7]): 0 | Corn plant response rating (corn; [8]): 0 | Plant response rating, Redroot pigweed (pigweed; [2]): 0 | Redroot pigweed plant response rating (pigweed; [3]): 3 | Plant response rating, Redroot pigweed (pigweed; [4]): 0 | Plant response rating, Redroot pigweed (pigweed; [5]): 0 | Redroot pigweed plant response rating (pigweed; [6]): 4 | Redroot pigweed plant response rating (pigweed; [7]): 10 | Plant response rating, Velvetleaf (velvetleaf; [2]): 0 | Velvetleaf plant response rating (velvetleaf; [3]): 0 | Plant response rating, Velvetleaf (velvetleaf; [4]): 0 | Plant response rating, Velvetleaf (velvetleaf; [5]): 0 | Velvetleaf plant response rating (velvetleaf; [6]): 2 | Velvetleaf plant response rating (velvetleaf; [7]): 6 | Plant response rating, Nutsedge (purple nutsedge; [2]): 0 | Nutsedge plant response rating (purple nutsedge; [3]): 0 | Plant response rating, Nutsedge (purple nutsedge; [4]): 0 | Plant response rating, Nutsedge (purple nutsedge; [5]): 0 | Nutsedge plant response rating (purple nutsedge; [6]): 0 | Nutsedge plant response rating (purple nutsedge; [7]): 0 | Plant response rating, Barnyardgrass (bamyardgrass; [9]): 0 | Barnyardgrass plant response rating (bamyardgrass; [10]): 8 | Barnyardgrass plant response rating (bamyardgrass; [11]): 0 | Plant response rating, Barnyardgrass (bamyardgrass; [12]): 0 | Plant response rating, Cocklebur (cocklebur; [1]): 0 | Plant response rating, Cocklebur (cocklebur; [2]): 0 | Cocklebur plant response rating (cocklebur; [3]): 0 | Plant response rating, Cocklebur (cocklebur; [4]): 0 | Plant response rating, Cocklebur (cocklebur; [5]): 0 | Cocklebur plant response rating (cocklebur; [6]): 0 | Cocklebur plant response rating (cocklebur; [7]): 0 | Cocklebur plant response rating (cocklebur; [8]): 0 | Wild oats plant response rating (wild oat; [3]): 0 | Plant response rating, Wild oats (wild oat; [4]): 0 | Plant response rating, Wild oats (wild oat; [5]): 0 | Wild oats plant response rating (wild oat; [6]): 2 | Wild oats plant response rating (wild oat; [7]): 4 | Plant response rating, B. signalgrass (surinam grass; [1]): 0 | Plant response rating, B. signalgrass (surinam grass; [2]): 0 | B. signalgrass plant response rating (surinam grass; [3]): 0 | Plant response rating, B. signalgrass (surinam grass; [4]): 2 | Plant response rating, B. signalgrass (surinam grass; [5]): 3 | B. signalgrass plant response rating (surinam grass; [15]): 7 | B. signalgrass plant response rating (surinam grass; Preemergence, Rate 500 g/ha, scale of 0 to 10 where 0 is no effect and 10 is complete control): 7 | B. signalgrass plant response rating (surinam grass; [8]): 0 | Plant response rating, Blackgrass (blackgrass; [1]): 0 | Plant response rating, Blackgrass (blackgrass; [2]): 0 | Blackgrass plant response rating (blackgrass; [3]): 0 | Plant response rating, Blackgrass (blackgrass; [4]): 3 | Blackgrass plant response rating (blackgrass; [15]): 7 | Blackgrass plant response rating (blackgrass; [7]): 9 | Blackgrass plant response rating (blackgrass; [8]): 0 | Plant response rating, Morningglory (morningglory; [2]): 9 | Morningglory plant response rating (morningglory; [3]): 9 | Plant response rating, Morningglory (morningglory; [4]): 0 | Plant response rating, Morningglory (morningglory; [5]): 0 | Morningglory plant response rating (morningglory; [6]): 0 | Morningglory plant response rating (morningglory; [7]): 0 | Plant response rating, Soybean (soybean; [2]): 4 | Soybean plant response rating (soybean; [3]): 6 | Plant response rating, Soybean (soybean; [4]): 0 | Plant response rating, Soybean (soybean; [5]): 0 | Soybean plant response rating (soybean; [6]): 0 | Soybean plant response rating (soybean; [7]): 0 | Rice plant response rating (rice; [13]): 0 | Plant response rating, Rice (rice; [14]): 0
